Data published in PubChem BioAssay AID2060489 (Molecular Pharmacology Branch, DTP, NCI, 2025).
pIC50: −log10 of the molar value.

Tested on: 922993-354-T-J3-PDC complex spheroids, viability
Assay: Anticancer human tumor 922993-354-T-J3-PDC patient-derived endometrial carcinoma cell line growth inhibition [GQUAD]
Conditions: for pIC50: curve of first compound; for viability, T/C: stronger effect = lower value
Outline: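 Viability of tumor cells grown as complex spheroids with endothelial and stromal cells, exposed to drug combinations. Top concentration at or near clinical Cmax (else 10 microM), diluted in half-log increments.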

[1] = second compound 0.0316 µM, first compound 0.0316 µM
[2] = second compound 0.0316 µM, first compound 0.1 µM
[3] = second compound 0.0316 µM, first compound 0.316 µM
[4] = second compound 0.0316 µM, first compound 1 µM
[5] = second compound 0.0316 µM, first compound 3.16 µM
[6] = second compound 0.0316 µM, first compound 10 µM
[7] = second compound 0.1 µM, first compound 0.0316 µM
[8] = second compound 0.1 µM, first compound 0.1 µM
[9] = second compound 0.1 µM, first compound 0.316 µM
[10] = second compound 0.1 µM, first compound 1 µM
[11] = second compound 0.1 µM, first compound 3.16 µM
[12] = second compound 0.1 µM, first compound 10 µM
[13] = second compound 0.316 µM, first compound 0.0316 µM
[14] = second compound 0.316 µM, first compound 0.1 µM
[15] = second compound 0.316 µM, first compound 0.316 µM
[16] = second compound 0.316 µM, first compound 1 µM
[17] = second compound 0.316 µM, first compound 3.16 µM
[18] = second compound 0.316 µM, first compound 10 µM
[19] = second compound 1 µM, first compound 0.0316 µM
[20] = second compound 1 µM, first compound 0.1 µM
[21] = second compound 1 µM, first compound 0.316 µM
[22] = second compound 1 µM, first compound 1 µM
[23] = second compound 1 µM, first compound 3.16 µM
[24] = second compound 1 µM, first compound 10 µM
[25] = second compound 3.16 µM, first compound 0.0316 µM
[26] = second compound 3.16 µM, first compound 0.1 µM
[27] = second compound 3.16 µM, first compound 0.316 µM
[28] = second compound 3.16 µM, first compound 1 µM
[29] = second compound 3.16 µM, first compound 3.16 µM
[30] = second compound 3.16 µM, first compound 10 µM
[31] = second compound 10 µM, first compound 0.0316 µM
[32] = second compound 10 µM, first compound 0.1 µM
[33] = second compound 10 µM, first compound 0.316 µM
[34] = second compound 10 µM, first compound 1 µM
[35] = second compound 10 µM, first compound 3.16 µM
[36] = second compound 10 µM, first compound 10 µM
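Further: spheroids exposed to compounds for seven days.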
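Wherever viability, T/C is given: 100% = DMSO vehicle control viability.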

**Q.** How did the pIC50 (second compound 0.0316 µM) turn out when CC(C)n1c(=O)n(C)c2cnc3cc(F)c(-c4ccc(OCCCN5CCCCC5)nc4)cc3c21 + Cc1cnc(CNC(=O)c2c(=O)c3ccc(N4CCCN(C)CC4)nc3n3c2sc2ccccc23)cn1 was run?
**A.** < 5.00

**Q.** What about the pIC50 (second compound 0.1 µM) of the same compound?
**A.** 6.59

**Q.** What about the pIC50 (second compound 0.316 µM) of the same compound?
**A.** > 7.50

**Q.** What about the pIC50 (second compound 1 µM) of the same compound?
**A.** 6.32

**Q.** And the pIC50 (second compound 3.16 µM)?
**A.** > 7.50

**Q.** What about the pIC50 (second compound 10 µM) of the same compound?
**A.** > 7.50

**Q.** And the viability, T/C [1]?
**A.** 87.1%

**Q.** What about the viability, T/C [2] of the same compound?
**A.** 75%

**Q.** And the viability, T/C [3]?
**A.** 59.3%

**Q.** And the viability, T/C [4]?
**A.** 59.8%

**Q.** And the viability, T/C [5]?
**A.** 52.9%

**Q.** What about the viability, T/C [6] of the same compound?
**A.** 52%

**Q.** And the viability, T/C [7]?
**A.** 53.6%

**Q.** And the viability, T/C [8]?
**A.** 54.5%

**Q.** And the viability, T/C [9]?
**A.** 44.9%

**Q.** What about the viability, T/C [10] of the same compound?
**A.** 45.4%

**Q.** What about the viability, T/C [11] of the same compound?
**A.** 52.9%

**Q.** What about the viability, T/C [12] of the same compound?
**A.** 41.6%

**Q.** And the viability, T/C [13]?
**A.** 52.2%

**Q.** And the viability, T/C [14]?
**A.** 41.4%

**Q.** What about the viability, T/C [15] of the same compound?
**A.** 46.9%

**Q.** What about the viability, T/C [16] of the same compound?
**A.** 40%

**Q.** What about the viability, T/C [17] of the same compound?
**A.** 59.2%

**Q.** And the viability, T/C [18]?
**A.** 46.6%

**Q.** And the viability, T/C [19]?
**A.** 44.1%

**Q.** What about the viability, T/C [20] of the same compound?
**A.** 53.9%

**Q.** What about the viability, T/C [21] of the same compound?
**A.** 54.4%

**Q.** What about the viability, T/C [22] of the same compound?
**A.** 49.5%

**Q.** And the viability, T/C [23]?
**A.** 45.6%

**Q.** And the viability, T/C [24]?
**A.** 38.6%

**Q.** And the viability, T/C [25]?
**A.** 45.4%

**Q.** What about the viability, T/C [26] of the same compound?
**A.** 45.6%

**Q.** And the viability, T/C [27]?
**A.** 49%

**Q.** And the viability, T/C [28]?
**A.** 48.6%

**Q.** What about the viability, T/C [29] of the same compound?
**A.** 58.8%

**Q.** What about the viability, T/C [30] of the same compound?
**A.** 44.6%

**Q.** And the viability, T/C [31]?
**A.** 41.9%

**Q.** What about the viability, T/C [32] of the same compound?
**A.** 43.6%

**Q.** What about the viability, T/C [33] of the same compound?
**A.** 36.6%

**Q.** And the viability, T/C [34]?
**A.** 42.1%

**Q.** And the viability, T/C [35]?
**A.** 37.9%

**Q.** And the viability, T/C [36]?
**A.** 28.3%

**Q.** With O=C(c1cc(Cc2n[nH]c(=O)c3ccccc23)ccc1F)N1CCN(C(=O)C2CC2)CC1 + Cc1cnc(CNC(=O)c2c(=O)c3ccc(N4CCCN(C)CC4)nc3n3c2sc2ccccc23)cn1 as the compound, how does the pIC50 (second compound 0.0316 µM) read?
**A.** < 5.00

**Q.** And the pIC50 (second compound 0.1 µM)?
**A.** < 5.00

**Q.** And the pIC50 (second compound 0.316 µM)?
**A.** > 7.50

**Q.** What about the pIC50 (second compound 1 µM) of the same compound?
**A.** > 7.50

**Q.** And the pIC50 (second compound 3.16 µM)?
**A.** > 7.50

**Q.** And the pIC50 (second compound 10 µM)?
**A.** 5.42

**Q.** What about the viability, T/C [1] of the same compound?
**A.** 79.7%

**Q.** And the viability, T/C [2]?
**A.** 78%

**Q.** And the viability, T/C [3]?
**A.** 90.8%

**Q.** What about the viability, T/C [4] of the same compound?
**A.** 92.5%

**Q.** What about the viability, T/C [5] of the same compound?
**A.** 61.2%

**Q.** What about the viability, T/C [6] of the same compound?
**A.** 75%

**Q.** What about the viability, T/C [7] of the same compound?
**A.** 74.1%

**Q.** What about the viability, T/C [8] of the same compound?
**A.** 68.3%

**Q.** And the viability, T/C [9]?
**A.** 64.1%

**Q.** What about the viability, T/C [10] of the same compound?
**A.** 49.1%

**Q.** And the viability, T/C [11]?
**A.** 54.4%

**Q.** And the viability, T/C [12]?
**A.** 76%

**Q.** What about the viability, T/C [13] of the same compound?
**A.** 57.4%

**Q.** And the viability, T/C [14]?
**A.** 46.1%

**Q.** What about the viability, T/C [15] of the same compound?
**A.** 39.4%

**Q.** And the viability, T/C [16]?
**A.** 42%

**Q.** What about the viability, T/C [17] of the same compound?
**A.** 50.4%

**Q.** What about the viability, T/C [18] of the same compound?
**A.** 55.3%

**Q.** And the viability, T/C [19]?
**A.** 50.2%

**Q.** And the viability, T/C [20]?
**A.** 51.7%

**Q.** And the viability, T/C [21]?
**A.** 37.2%

**Q.** What about the viability, T/C [22] of the same compound?
**A.** 43.5%

**Q.** And the viability, T/C [23]?
**A.** 48.5%

**Q.** And the viability, T/C [24]?
**A.** 41.1%

**Q.** What about the viability, T/C [25] of the same compound?
**A.** 43.7%

**Q.** What about the viability, T/C [26] of the same compound?
**A.** 53.4%

**Q.** What about the viability, T/C [27] of the same compound?
**A.** 53.4%

**Q.** What about the viability, T/C [28] of the same compound?
**A.** 57.7%

**Q.** And the viability, T/C [29]?
**A.** 51.3%

**Q.** What about the viability, T/C [30] of the same compound?
**A.** 49.8%

**Q.** And the viability, T/C [31]?
**A.** 42.8%

**Q.** And the viability, T/C [32]?
**A.** 53.4%

**Q.** What about the viability, T/C [33] of the same compound?
**A.** 60.1%

**Q.** And the viability, T/C [34]?
**A.** 52.8%

**Q.** What about the viability, T/C [35] of the same compound?
**A.** 52%

**Q.** And the viability, T/C [36]?
**A.** 39.2%
